Results published in publication PMC11411704, “Gatekeeping Activity of Collinear Ketosynthase Domains Limits Product Diversity for Engineered Type I Polyketide Synthases” (Biochemistry, 2024).

How the values were obtained:
[1] = target: T1, Plt module-1 (P1 PKS module-1) (Pseudomonas fluorescens, UniProt O51827); test: diketide formation, extender unit competition assay; type: biochemical; conditions: 4,5-dichloropyrrolyl-SNAC as ketide substrate; equimolar Mal-CoA and MeMal-CoA made with MatB; product diketide 6
T1 construct: gene pltB; module-1 only (KS-AT-CP) of the pyoluteorin PKS, wild-type AT; DEBS interdomain linkers used in the bimodular system; recombinant, purified; borders only in supplement
T1 sequence (O51827 1-1030 limits assumed): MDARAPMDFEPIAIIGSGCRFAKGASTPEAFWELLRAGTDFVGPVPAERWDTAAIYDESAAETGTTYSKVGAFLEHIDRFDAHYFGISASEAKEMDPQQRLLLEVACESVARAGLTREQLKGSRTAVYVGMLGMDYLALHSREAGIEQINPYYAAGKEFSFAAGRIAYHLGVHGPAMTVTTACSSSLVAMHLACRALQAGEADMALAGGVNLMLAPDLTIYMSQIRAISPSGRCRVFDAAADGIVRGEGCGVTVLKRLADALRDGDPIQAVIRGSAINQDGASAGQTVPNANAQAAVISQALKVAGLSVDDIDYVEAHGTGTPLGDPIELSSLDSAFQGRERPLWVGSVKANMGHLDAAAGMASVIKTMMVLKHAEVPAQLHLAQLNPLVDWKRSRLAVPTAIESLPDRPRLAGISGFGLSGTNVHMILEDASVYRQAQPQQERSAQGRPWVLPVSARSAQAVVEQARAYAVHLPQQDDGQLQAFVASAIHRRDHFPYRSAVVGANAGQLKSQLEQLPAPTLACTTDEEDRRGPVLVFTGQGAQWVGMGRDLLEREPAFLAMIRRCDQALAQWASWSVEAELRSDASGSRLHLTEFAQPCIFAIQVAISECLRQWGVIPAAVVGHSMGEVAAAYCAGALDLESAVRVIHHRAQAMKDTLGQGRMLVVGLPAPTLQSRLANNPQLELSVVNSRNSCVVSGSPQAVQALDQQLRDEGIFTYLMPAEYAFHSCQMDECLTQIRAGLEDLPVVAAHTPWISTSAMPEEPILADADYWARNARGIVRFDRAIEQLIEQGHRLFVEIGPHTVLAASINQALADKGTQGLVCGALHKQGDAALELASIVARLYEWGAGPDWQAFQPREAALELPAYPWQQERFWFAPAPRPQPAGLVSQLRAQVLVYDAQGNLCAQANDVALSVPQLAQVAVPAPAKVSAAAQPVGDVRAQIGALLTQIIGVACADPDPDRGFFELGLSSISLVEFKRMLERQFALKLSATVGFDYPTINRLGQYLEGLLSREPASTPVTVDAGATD

FabD = target: T2, FabD (Escherichia coli, UniProt P0AAI9); test: carrier protein acylation under triketide pyrone production conditions; type: biochemical; conditions: acceptor: PKS carrier protein domains
T2 sequence (P0AAI9 2-309): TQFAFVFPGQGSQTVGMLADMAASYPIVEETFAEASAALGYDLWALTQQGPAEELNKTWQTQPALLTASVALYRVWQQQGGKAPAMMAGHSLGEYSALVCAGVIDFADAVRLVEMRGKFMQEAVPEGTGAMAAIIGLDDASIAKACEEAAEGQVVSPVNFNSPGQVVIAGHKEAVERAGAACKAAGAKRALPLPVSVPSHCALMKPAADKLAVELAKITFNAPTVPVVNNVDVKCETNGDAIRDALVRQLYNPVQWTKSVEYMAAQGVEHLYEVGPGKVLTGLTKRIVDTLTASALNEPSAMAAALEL

| SMILES | diketide formation, extender unit competition assay [1] | carrier protein acylation under triketide pyrone production conditions (FabD) |
| --- | --- | --- |
| CC(C(=O)O)C(=O)SCCNC(=O)CCNC(=O)[C@H](O)C(C)(C)COP(=O)(O)OP(=O)(O)OC[C@H]1O[C@@H](n2cnc3c(N)ncnc32)[C@H](O)[C@@H]1OP(=O)(O)O (stereo partly drawn) [MeMal-CoA] | the Plt module-1 KS could efficiently use the MeMal extender unit for diketide production | – |
| C#CCC(C(=O)O)C(=O)SCCNC(=O)CCNC(=O)[C@H](O)C(C)(C)COP(=O)(O)OP(=O)(O)OC[C@H]1O[C@@H](n2cnc3c(N)ncnc32)[C@H](O)[C@@H]1OP(=O)(O)O (stereo partly drawn) [PgMal-CoA] | – | FabD was also proficient in incorporating EtMal and PgMal extender units |
| CCC(C(=O)O)C(=O)SCCNC(=O)CCNC(=O)[C@H](O)C(C)(C)COP(=O)(O)OP(=O)(O)OC[C@H]1O[C@@H](n2cnc3c(N)ncnc32)[C@H](O)[C@@H]1OP(=O)(O)O (stereo partly drawn) [EtMal-CoA] | – | FabD was also proficient in incorporating EtMal and PgMal extender units |
